Peptide text beside a SMILES is read from it. * marks the point of attachment. DOTA = O=C(O)CN1CCN(CC(=O)O)CCN(CC(=O)*)CCN(CC(=O)O)CC1
Experiments:
[1] = tested on: prostate tumour bearing mice; settings: 60 min p.i.; cited from earlier work
Procedure: (§1) Several tracers have been developed to target and facilitate the molecular imaging of colon or prostate cancer, such as: ^68Ga-NGR with over 2.7 ± 0.65% ID/g in colon tumour at 30 min p.i., [^18F]FDG with 2.5 ± 0.5% ID/g [^18F]FDG in colon tumours, [^18F]fluorocholine (FCH) with 7.9 ± 5% ID/g at 60 min p.i. in prostate tumour bearing mice. Compared to these, the values obtained for tumour uptake using the four studied nanotracers are between 2.53 ± 0.26% ID/g for ^68Ga-DOTA-NMN-AuNP to 9.82 ± 2.28% ID/g for ^68Ga-DOTA-PEG(4)-BBN(7-14)-AuNP in colon tumours and 2.79 ± 0.4% ...

[2] = in vivo; set-up: species or system mice; settings: male, NU/J athymic nude, mouse, 3.81 MBq, total radioactivity, Biodistribution
Procedure: (§2) All experiments were conducted according to the guidelines of EU Directive 2010/63 approved by The Romanian National Sanitary Veterinary and Food Safety Authority (NSVFSA, approval no. 442/25.02.2019). Athymic nude male mice (NU/J, 8–10 weeks old) were obtained from The Jackson Laboratory (Bar Harbor, ME, USA). Animals were housed in ventilated cages with a 12-h light-dark cycle and receive food and water ad libitum. Colon/prostate tumours were induced 7–10 days prior the experiments by a subcutaneous injection of 1 × 10^6 HT-29/DU-145 cancer cells. All injected animals were monitored daily until an ideal size of tumour for biodistribution was reached (60–100 mm^3). 3.81 ± 0.51 MBq of ^68Ga-labelled tracers were retro-orbital injected into the ophthalmic venous sinus after intraperitoneal anesthesia with 0.1 mL ketamine/xylazine/acepromazine cocktail: 7.5 mg/mL ketamine (Narkamon Bio, Bioveta, Cluj-Napoca, Romania), 1.5 mg/mL xylazine (Narcoxyl 2, MSD Animal Health, Madison, NJ, USA) and 0.25 mg/mL acepromazine (Sedam, SC Pasteur Filiala Filipesti SRL, Filipestii de Padure, Romania). All animals were sacrificed at 30 min p.i. and the organs were weighted and measured in a dose calibrator (Biodex Medical Systems Inc., Shirley, NY, USA). The biodistribution was calculated as percent of injected dose per gram of organ (% ID/g) ± standard deviation (SD, n = 4 for each injected tracer).
(§3) All the data were expressed as means ± standard deviation (n = 4). Comparison of results among the groups (% ID/g vs. tracers, % ID/g vs. tracers and organs, % ID/g vs. tracers and tumoral cells), was carried out by one-way analysis of variance (ANOVA) and Tukey post-hoc analysis using SPSS v26 (IBM, Armonk, NY, USA) The results were considered significant for a p-value less than 0.05.

[3] = in vivo; set-up: species or system mice; settings: male, NU/J athymic nude, mouse, 3.81 MBq, total radioactivity, Biodistribution; remark: listed apart in the source
Procedure: as §2, §3

[4] = target: neurotensin NTRS1, NTRS2 and NTRS3 receptors; set-up: method as in printed for the value; settings: target receptors as in Table 3 (NTRS1, NTRS2; SR 14294 also NTRS3); not measured in this paper, ref not given; cited from earlier work
[5] = Dynamic light scattering of peptide-functionalized gold nanoparticles; format: physicochemical; settings: cold peptide-functionalized AuNPs, 25 °C; for Hydrodynamic Diameter: DLS, Nano ZS, 633 nm, 90°; for Zeta Potential: DLS/zetasizer
Source text: The reaction between DOTA-peptides and NHS-activated PEG-AuNPs was monitored by detecting changes in nanoparticles size as a peptide layer is formed around nanoparticles. The initial hydrodynamic diameter of bare PEG-AuNPs was 42.56 nm, and after functionalization increased to approximately 73 nm (Figure 1). The electric potential at the boundary of the double layer (counter ions and Stern layer) of nanoparticles, also known as zeta potential is higher than −44 mV. Thus, the peptide-functionalized nanoparticles have sufficient repulsive force to anticipate a good physical stability.
The size distribution and zeta potential of cold peptide functionalized-gold nanoparticles were measured using a Nano ZS zetasizer system (Malvern Instruments, Malvern, UK). Measurement parameters were as follows: a laser wavelength of 633 nm (He-Ne), measurement angle of 90°, measurement temperature of 25 °C, and refractive index of medium n = 1.330.

[6] = tested on: colon tumour; settings: in vivo; cited from earlier work
Procedure: as §1

[7] = tested on: human colon carcinoma HT-29 cells; experiment: MTS reduction test (cytotoxicity); settings: free peptides 1–4 nmol/mL, 48 h, triplicate
Procedure: (§4) The MTS reduction test was used to evaluate the number of metabolically active cells in culture, under various experimental conditions.
(§5) Briefly, cells were cultivated in 96-well plates (3 × 10^4 CRL9855 cells/mL, 10 × 10^4 HT-29 cells/mL and 5 × 10^4 DU-145 cells/mL) in a total volume of 100 μL. Adherent cells were left for 24 h to adhere to the culture well. Thereafter, NPs and peptides were added at various concentrations and cells were cultivated for 48 h. Non-treated cells were considered as control (CTRL). For background assessment culture medium, NPs and peptides were cultivated in absence of cells, considering that NPs might interfere with the spectrophotometric measurement. All samples were cultivated in triplicate. At the end of the incubation time, 20 μL of MTS reagent were added and samples were cultivated for another 1–3 h until the reaction color was developed. The OD at 490 nm was measured in each sample using a Tecan Sunrise ELISA reader with Magellan universal reader control and data analysis software (Tecan Group Ltd., Mannedorf, Switzerland). Final OD in cellular samples was calculated by subtracting the OD of the corresponding background samples.

[8] = tested on: human prostate carcinoma DU-145 cells; experiment: MTS reduction test (cytotoxicity); settings: free peptides 1–4 nmol/mL, 48 h, triplicate
Procedure: as §4, §5

[9] = tested on: human proliferating CRL9855 monocytes; experiment: MTS reduction test (cytotoxicity); settings: free peptides 1–4 nmol/mL, 48 h, triplicate
Procedure: as §4, §5

[10] = tested on: HT-29 colon cancer cells; experiment: Uptake and retention, rotating radioimmunoassay (LigandTracer Yellow); format: cell-based, human; settings: HT-29 cells, 2–3 nmol peptide, real-time signal during incubation
Procedure: The binding kinetic (uptake and retention) of the ^68Ga-labelled peptides and peptide-functionalized gold nanoparticles we investigated using rotating radioimmunoassay. 2–3 nmol of each peptide labelled with ^68Ga was incubated on DU-145 prostate and HT-29 colon cancer cells. After uptake measurement, the radioactive medium was removed and the cells were washed with fresh DMEM-F12 medium. The cell retention is measured after this process, during each rotation of the Petri dish support the detector is measuring only the signal coming from the tracers bound to cells. The results are reported as measured signal during the time of analysis (where t = 0 min is the time of incubation), as illustrated in Figure 3. […]
The retention level is illustrated after the indicator arrows and reflects the percent of activity retained by the cells from the maximum counted during uptake, after hot medium removal and cells washing step. […]
Cells were maintained in culture according to the protocol provided by the depositor. […] Cells at passage 6–9 and were counted before seeding for experimentation by optical microscopy using a Burker-Turk counting chamber, and cell viability was assessed by the trypan blue exclusion test. […]

Compound: C[N+](C)(CF)CCO [[^18F]fluorocholine (FCH), [^18F]fluorocholine]
- Tumour uptake [1]: 7.9 ± 5 % ID/g

Compound: CSCC[C@H](NC(=O)[C@H](CC(C)C)NC(=O)[C@H](Cc1c[nH]cn1)NC(=O)CNC(=O)[C@@H](NC(=O)[C@H](C)NC(=O)[C@H](Cc1c[nH]c2ccccc12)NC(=O)[C@H](CCC(N)=O)NC(=O)CCOCCOCCOCCOCCNC(=O)CN1CCN(CC(=O)O)CCN(CC(=O)O)CCN(CC(=O)O)CC1)C(C)C)C(N)=O [^68Ga-DOTA-PEG(4)-BBN(7-14), metal not drawn]
- tissue uptake at 0.5 h ([2]; Blood): 6.48 ± 1.53 %ID/g
- tissue uptake at 0.5 h ([2]; Kidneys): 18 ± 3.78 %ID/g
- tissue uptake at 0.5 h ([2]; Tumour (prostate)): 3.78 ± 0.27 %ID/g
- tissue uptake at 0.5 h ([3]; Blood): 6.42 ± 0.27 %ID/g
- tissue uptake at 0.5 h ([3]; Bone): 0.75 ± 0.06 %ID/g
- tissue uptake at 0.5 h ([3]; Kidneys): 18.7 ± 0.67 %ID/g
- tissue uptake at 0.5 h ([3]; Lymph Node): 1.1 ± 0.45 %ID/g
- tissue uptake at 0.5 h ([3]; Tumour (colon)): 3.31 ± 0.76 %ID/g

Compound: COc1cccc(OC)c1-c1cc(C(=O)NC2(C(=O)O)C3CC4CC(C3)CC2C4)nn1-c1ccc(C(=O)N(C)CCCN(C)C)cc1C(C)C (centres unmarked) [SR 14294]
- Kd [4]: 10 nM

Compound: DOTA-NMB-AuNP: cold DOTA-neuromedin B-functionalized gold nanoparticles
- Hydrodynamic Diameter [5]: 72.18 nm
- Zeta Potential [5]: −47.3 mV

Compound: CSCC[C@H](NC(=O)[C@H](Cc1ccccc1)NC(=O)[C@H](Cc1c[nH]cn1)NC(=O)CNC(=O)[C@@H](NC(=O)[C@H](C)NC(=O)[C@H](Cc1c[nH]c2ccccc12)NC(=O)[C@H](CC(C)C)NC(=O)[C@H](CC(N)=O)NC(=O)CNC(=O)CN1CCN(CC(=O)O)CCN(CC(=O)O)CCN(CC(=O)O)CC1)[C@@H](C)O)C(N)=O [^68Ga-DOTA-NMB, metal not drawn]
- tissue uptake at 0.5 h ([2]; Pancreas): 1.36 ± 0.07 %ID/g
- tissue uptake at 0.5 h ([2]; Tumour (prostate)): 2.54 ± 0.42 %ID/g
- tissue uptake at 0.5 h ([3]; Bone): 0.1 ± 0.07 %ID/g
- tissue uptake at 0.5 h ([3]; Tumour (colon)): 1.73 ± 0.08 %ID/g

Compound: DOTA-NMN-AuNP: cold DOTA-neuromedin N-functionalized gold nanoparticles
- Hydrodynamic Diameter [5]: 73.29 nm
- Zeta Potential [5]: −49.6 mV

Compound: DOTA-NT-AuNP: cold DOTA-neurotensin-functionalized gold nanoparticles
- Hydrodynamic Diameter [5]: 72.36 nm
- Zeta Potential [5]: −44.4 mV

Compound: [^18F]FDG
- Tumour uptake [6]: 2.5 ± 0.5 % ID/g

Compound: Cc1ccc(S(=O)(=O)Nc2ccc3c(c2)c(C(=O)C(F)(F)F)cn3CC(=O)N[C@@H](CC(C)C)C(=O)O)cc1 [NTRC 824]
- Kd [4]: 38 nM

Compound: CC[C@H](C)[C@H](NC(=O)[C@H](Cc1ccc(O)cc1)NC(=O)[C@@H]1CCCN1C(=O)[C@@H](NC(=O)[C@H](CCCCN)NC(=O)CN1CCN(CC(=O)O)CCN(CC(=O)O)CCN(CC(=O)O)CC1)[C@@H](C)CC)C(=O)N[C@@H](CC(C)C)C(=O)O [^68Ga-DOTA-NMN, metal not drawn] ({DOTA}-KIPYIL-OH; C-terminus assumed)
- tissue uptake at 0.5 h ([2]; Heart): 0.99 ± 0.26 %ID/g
- tissue uptake at 0.5 h ([2]; Kidneys): ~60 %ID/g
- tissue uptake at 0.5 h ([2]; Lungs): 2.37 ± 0.5 %ID/g
- tissue uptake at 0.5 h ([2]; Pancreas): 0.58 ± 0.02 %ID/g
- tissue uptake at 0.5 h ([2]; Tumour (prostate)): 1.77 ± 0.5 %ID/g
- tissue uptake at 0.5 h ([3]; Bone): 0.16 ± 0.02 %ID/g
- tissue uptake at 0.5 h ([3]; Brain): 0.04 ± 0.01 %ID/g
- tissue uptake at 0.5 h ([3]; Heart): 1 ± 0.42 %ID/g
- tissue uptake at 0.5 h ([3]; Kidneys): 21.1 ± 1.97 %ID/g
- tissue uptake at 0.5 h ([3]; Lungs): 2.37 ± 0.77 %ID/g
- tissue uptake at 0.5 h ([3]; Lymph Node): 0.39 ± 0.05 %ID/g
- tissue uptake at 0.5 h ([3]; Spleen): 0.35 ± 0.02 %ID/g
- tissue uptake at 0.5 h ([3]; Tumour (colon)): 2.02 ± 0.02 %ID/g

Compound: ^68Ga-DOTA-NT-AuNP: NHS-activated PEG-gold nanoparticles functionalized with ^68Ga-DOTA-NT
- Hydrodynamic Diameter [5]: 72.36 nm

Compound: CSCC[C@H](NC(=O)[C@H](Cc1ccccc1)NC(=O)[C@H](Cc1c[nH]cn1)NC(=O)CNC(=O)[C@@H](NC(=O)[C@H](C)NC(=O)[C@H](Cc1c[nH]c2ccccc12)NC(=O)[C@H](CC(C)C)NC(=O)[C@H](CC(N)=O)NC(=O)CNC(=O)CN1CCN(CC(=O)O)CCN(CC(=O)O)CCN(CC(=O)O)CC1)[C@@H](C)O)C(N)=O [DOTA-NMB]
- Effect on MTS reduction [7]: do not alter MTS reduction
- Effect on MTS reduction [8]: do not alter MTS reduction
- Effect on MTS reduction [9]: do not alter MTS reduction

Compound: ^68Ga-DOTA-NMB-AuNP: NHS-activated PEG-gold nanoparticles functionalized with ^68Ga-DOTA-Neuromedin B
- Uptake profile [10]: up and down trend

Compound: COc1cccc(OC)c1-c1cc(C(=O)NC2(C(=O)O)C3CC4CC(C3)CC2C4)nn1-c1ccnc2cc(Cl)ccc12 (centres unmarked) [SR 48692]
- Kd [4]: 15 nM
